According to US20060089395A1, “Nf-kb activation inhibitors” (priority 2002, published 2006):
“Also recorded” adds a separate entry of the source. Read-outs that look alike come from different tables or passages of the source.

Assays:
[1] = tested on: Vascular smooth muscle cells of normal coronary artery (Cryo CASMC); experiment: Inhibitory test against proliferation of vascular smooth muscle cells of normal coronary artery under proliferation stimulation (MTS assay); type: cell-based; details: FGF and EGF stimulation, 72 hours
Experimental: Vascular smooth muscle cells of normal coronary artery (Cryo CASMC) were cultured for 2 hours in the presence or absence of a test substance in DMEM medium containing 0.5% of FBS and insulin (5 u g/ml). Then, FGF and EGF were added for proliferation stimulation. The mixture was cultured for 72 hours and proliferation of the cells were measured by the MTS assay. The results aree shown in the following

NF-κ B = experiment: Inhibitory activity of NF-κ B activation, luciferase reporter assay in HepG2 under TNF-α stimulation; type: cell-based, human; details: HepG2, TNF-α (40 ng/ml), 4 hours
Procedure, shortened: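 Readout is firefly luciferase luminescence, expressed as inhibition versus compound-free wells. Before this, HepG2 cells carrying a transiently transfected 5×NF-κB-site luciferase plasmid (6–24 h post-transfection) received test compound plus TNF-α (40 ng/ml) for 4 h.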

IL-8 = experiment: Inhibition of IL-8 production by TNFα stimulation in synovial fibroblasts derived from a rheumatoid patient (ELISA); type: cell-based, human; details: for IC50: synovial fibroblasts, read-out: Inhibition against Mediator Release IC50(nM) IL-8; for inhibition at 1 µM: 72 h, 1000 nM, in parentheses, read-out: Inhibitory ratios (%) at 1000 nM, IL-8
Experimental: (§1) Synovial fibroblasts (Human Synoviocyte (RA-Positive), Toyobo, T4040-05) were cultured for 3 days in a medium containing 10 ng/ml of TNFα and a test compound. IL-6 and IL-8 in the supernatant were measured by the ELISA method, and PGE2 (prostaglandin E2) was measured by the EIA method.

IL-6 = experiment: Inhibition of IL-6 production by TNFα stimulation in synovial fibroblasts derived from a rheumatoid patient (ELISA); type: cell-based, human; details: for IC50: synovial fibroblasts, read-out: Inhibition against Mediator Release IC50(nM) IL-6; for Inhibitory ratios (%) at 1000 nM, IL-6: in parentheses
Experimental: as §1

PGE2 = experiment: Inhibition of PGE2 production by TNFα stimulation in synovial fibroblasts derived from a rheumatoid patient (EIA); type: cell-based, human; details: for IC50: synovial fibroblasts, read-out: Inhibition against Mediator Release IC50(nM) PGE2; for Inhibitory ratios (%) at 1000 nM, PGE2: in parentheses
Experimental: as §1

[2] = rheumatic patient-derived synovial fibroblasts under TNFα stimulation
[3] = Homo sapiens, Fibroblast, 72 h, 10 ng/ml TNFα, 3 days
[4] = Homo sapiens, Fibroblast, comparison compounds, TNFα stimulation

Row | SMILES | Inhibitory Ratio of NF-κ B Activation(%) Drug Concentration 1 μg/mL (NF-κ B; 1 μg/mL) [%] | Inhibitory Ratio of NF-κ B Activation(%) Drug Concentration 10 μg/mL (NF-κ B; 10 μg/mL) [%] | inhibition at 1 µM (IL-8; Homo sapiens, Fibroblast) [%] | IC50 (IL-8; [4]) [nM] | IC50 (IL-6; [4]) [nM] | IC50 (PGE2; [4]) [nM] | other results
1 | O=C(Nc1cc(C(F)(F)F)cc(C(F)(F)F)c1)c1cc(C=Cc2ccccc2)ccc1O [Compound No. 19] | 95.5 | 96.9 |  |  |  |  | Inhibitory Ratio of Proliferation(%) Compound Concentration 250 nM [1]: 34.0%; Inhibitory Ratio of Proliferation(%) Compound Concentration 500 nM [1]: 88.6%
2 | O=C(Nc1cc(C(F)(F)F)cc(C(F)(F)F)c1)c1cc(-n2cccc2)ccc1O [Compound No. 27] | 93.8 | 97.9 |  |  |  |  | IC50 (IL-8; 10 ng/ml TNFα, 3 days): 527 nM; IC50 (IL-6; 10 ng/ml TNFα, 3 days): 355 nM; IC50 (PGE2; 10 ng/ml TNFα, 3 days): 532 nM
3 | O=C(Nc1cc(C(F)(F)F)cc(C(F)(F)F)c1)c1cc(-c2ccsc2)ccc1O [Compound No. 29] | 81.7 | 92.9 |  |  |  |  | Inhibitory Ratio of Proliferation(%) Compound Concentration 250 nM [1]: 52.2%; Inhibitory Ratio of Proliferation(%) Compound Concentration 500 nM [1]: 90.4%
4 | O=C(Nc1cc(C(F)(F)F)cc(C(F)(F)F)c1)c1c(O)cccc1F [Compound No. 63] | 85.4 | 85.0 |  |  |  |  | IC50 (IL-8; 10 ng/ml TNFα, 3 days): 786 nM; IC50 (IL-6; 10 ng/ml TNFα, 3 days): 513 nM; IC50 (PGE2; 10 ng/ml TNFα, 3 days): 439 nM
5 | O=C(Nc1cc(C(F)(F)F)cc(C(F)(F)F)c1)c1c(O)ccc2ccccc12 [Compound No. 73] | 93.1 | 97.9 |  |  |  |  | IC50 (IL-8; 10 ng/ml TNFα, 3 days): 670 nM; IC50 (IL-6; 10 ng/ml TNFα, 3 days): 337 nM; IC50 (PGE2; 10 ng/ml TNFα, 3 days): 662 nM
6 | O=C(Nc1cc(Br)cc(C(F)(F)F)c1)c1cc(Br)ccc1O [Compound No. 86] | 96.7 | 98.7 |  |  |  |  | IC50 (IL-6; 10 ng/ml TNFα, 3 days): 565 nM; IC50 (PGE2; 10 ng/ml TNFα, 3 days): 562 nM
7 | O=C(Nc1cc(Cl)cc(Cl)c1)c1cc(Cl)ccc1O [Compound No. 125] | 84.5 | 96.8 |  |  |  |  | IC50 (IL-6; 10 ng/ml TNFα, 3 days): 903 nM; IC50 (PGE2; 10 ng/ml TNFα, 3 days): 966 nM
8 | COc1ccc(C(C)(C)C)cc1NC(=O)c1cc(Cl)ccc1O [Compound No. 135, 5-chloro-N-{5-[(1,1-dimethyl)ethyl]-2-methoxyphenyl}-2-hydroxybenzamide] |  |  |  |  |  |  | inhibition of the production of IL-8 (in words) (IL-8; [2]): potently inhibited; also recorded: strongly inhibited; IC50 (IL-6; [3]): 61 nM; inhibition of the production of IL-6 (in words) (IL-6; [2]): potently inhibited; also recorded: strongly inhibited; IC50 (PGE2; [3]): 41 nM; inhibition of the production of PGE2 (in words) (PGE2; [2]): potently inhibited; also recorded: strongly inhibited; inhibition at 1 µg/mL (NF-κ B; Homo sapiens, 1 μg/mL, read-out: Inhibitory Ratio of NF-κ B Activation(%) Drug Concentration 1 μg/mL): 86.2%; inhibition at 10 µg/mL (NF-κ B; Homo sapiens, 10 μg/mL, read-out: Inhibitory Ratio of NF-κ B Activation(%) Drug Concentration 10 μg/mL): 99.2%
9 | O=C(Nc1nc(C(F)(F)F)c(Br)s1)c1cc(Br)ccc1O [Compound No. 187] | 85.3 | 94.4 |  |  |  |  | IC50 (IL-6; 10 ng/ml TNFα, 3 days): 649 nM; IC50 (PGE2; 10 ng/ml TNFα, 3 days): 414 nM
10 | O=C(Nc1ccc(C(F)(F)F)cc1C(F)(F)F)c1cc(Cl)ccc1O [Reference Example 1, N-[2,4-bis(trifluoromethyl)phenyl]-5-chloro-2-hydroxybenzamide, reference compound] |  |  | -70 | > 1000 | 202 | > 1000 | Inhibitory ratios (%) at 1000 nM, PGE2 (PGE2): 1.2%
11 | O=C(Nc1ccccc1C(F)(F)F)c1cc(Cl)ccc1O [Reference Example 2, N-[2-(trifluoromethyl)phenyl]-5-chloro-2-hydroxybenzamide, reference compound] |  |  | 14 | > 1000 | 887 | 676 | 
12 | O=C(Nc1ccc(Cl)cc1C(F)(F)F)c1cc(Cl)ccc1O [Reference Example 3, N-[4-chloro-2-(trifluoromethyl)phenyl]-5-chloro-2-hydroxybenzamide, reference compound] |  |  | -43 | > 1000 | > 1000 | > 1000 | Inhibitory ratios (%) at 1000 nM, IL-6 (IL-6): −17%; Inhibitory ratios (%) at 1000 nM, PGE2 (PGE2): 20%
13 | O=C(Nc1cccc(C(F)(F)F)c1)c1cc(Br)ccc1O [Reference Example 4, N-[3-(trifluoromethyl)phenyl]-5-bromo-2-hydroxybenzamide, reference compound] |  |  | 16 | > 1000 | 690 | 413 | 
14 | O=C(Nc1ccc(Cl)c(C(F)(F)F)c1)c1cc(Br)ccc1O [Reference Example 5, N-[4-chloro-3-(trifluoromethyl)phenyl]-5-bromo-2-hydroxybenzamide, reference compound] |  |  | 16 | > 1000 | 91 | 57 | 
15 | O=C(Nc1ccc(C(F)(F)F)cc1)c1cc(Cl)ccc1O [Reference Example 6, N-[4-(trifluoromethyl)phenyl]-5-chloro-2-hydroxybenzamide, reference compound] |  |  | 4.2 | > 1000 | > 1000 | > 1000 | Inhibitory ratios (%) at 1000 nM, IL-6 (IL-6): 36%; Inhibitory ratios (%) at 1000 nM, PGE2 (PGE2): −24%
16 | O=C(Nc1ccc(C(F)(F)F)cc1Cl)c1cc(Br)ccc1O [Reference Example 7, N-[2-chloro-4-(trifluoromethyl)phenyl]-5-bromo-2-hydroxybenzamide, reference compound] |  |  | 16 | > 1000 | > 1000 | > 1000 | Inhibitory ratios (%) at 1000 nM, IL-6 (IL-6): 27%; Inhibitory ratios (%) at 1000 nM, PGE2 (PGE2): 10%
17 | O=C(Nc1ccc(Cl)c(Cl)c1)c1cc(Br)ccc1O [drawing 563, reference compound] |  |  | -12 | > 1000 | 205 | 208 | 
18 | O=C(Nc1ccc(F)cc1F)c1cc([N+](=O)[O-])ccc1O [drawing 564, reference compound] |  |  | -4.5 | > 1000 | 248 | 62 | 
19 | O=C(Nc1ccc(F)cc1F)c1cc(I)ccc1O [reference compound] |  |  | -23 | > 1000 | 85 | 730 | 
20 | CC(=O)c1ccc(NC(=O)c2cc(I)ccc2O)cc1 [reference compound] |  |  | -5.9 | > 1000 | 82 | > 1000 | Inhibitory ratios (%) at 1000 nM, PGE2 (PGE2): −3.9%
21 | O=C(Nc1ccc(-c2ccccc2)cc1)c1cc(C(F)(F)F)ccc1O [reference compound] |  |  | -67 | > 1000 | 140 | 292 | 
